The IC50 is the concentration at which inhibition is half-maximal. A higher IC50 goes with lower potency.

Molecules are shown by their SMILES. Activity calls are given as the source filed them. The calls are words filed in the database; no cut-off is given here.

Drawing on ChEMBL document CHEMBL1921680, “Synthesis and antileishmanial evaluation of 1-aryl-4-(4,5-dihydro-1H-imidazol-2-yl)-1H-pyrazole derivatives” (Bioorg Med Chem Lett, 2011), this text covers IC50 and Activity for 16 compounds.

One series has as its system Leishmania amazonensis. Nature of the series: Antileishmanial activity against extracellular promastigotes form of Leishmania amazonensis MHOM/ BR/77/LTB0016 after 24 hrs by neubauer chamber analysis. Format: functional, organism-based. To be noted: MHOM/ BR/77/LTB0016, 24 h.
In turn, `Clc1ccc(-n2cc(C3=NCCN3)cn2)cc1Cl` gave a half-inhibitory concentration (IC50) of 297 µM.

Consider `Nc1c(C2=NCCN2)cnn1-c1cccc(Cl)c1`, for which the IC50 was greater than 500 µM.

Compound `Nc1c(C2=NCCN2)cnn1-c1ccc(Br)cc1` had a concentration for half-maximal inhibition (IC50) greater than 500 µM.

In turn, `Clc1cc(Cl)cc(-n2cc(C3=NCCN3)cn2)c1` gave a half-inhibitory concentration (IC50) greater than 500 µM.

`Nc1c(C2=NCCN2)cnn1-c1ccc(Cl)c(Cl)c1` registered an IC50 of 381 µM.

For the compound `Nc1c(C2=NCCN2)cnn1-c1cccc(Br)c1`, the IC50 was found to be 31.3 µM.

`c1ccc(-n2cc(C3=NCCN3)cn2)cc1`: half-maximal inhibition (IC50) was put at 43 µM.

`Nc1c(C2=NCCN2)cnn1-c1cc(Cl)cc(Cl)c1` yielded a 50% inhibitory concentration (IC50) of 15.5 µM.

On to `Brc1cccc(-n2cc(C3=NCCN3)cn2)c1`, for which the IC50 is greater than 500 µM.

With `Clc1cccc(-n2cc(C3=NCCN3)cn2)c1`, the concentration for half-maximal inhibition (IC50) came out at 60 µM.

For the compound `Nc1c(C2=NCCN2)cnn1-c1ccccc1`, inhibition was half-maximal at 365 µM (IC50).

As to `Brc1ccc(-n2cc(C3=NCCN3)cn2)cc1`, the 50% inhibitory concentration (IC50) worked out at 30 µM.

Regarding `N=C(N)c1ccc(OCCCCCOc2ccc(C(=N)N)cc2)cc1` [PENTAMIDINE], the 50% inhibitory concentration (IC50) is 10 µM.

As for `Fc1cccc(-n2cc(C3=NCCN3)cn2)c1`, the IC50 was 54 µM.

The compound `Nc1c(C2=NCCN2)cnn1-c1cccc(F)c1` returned a 50% inhibitory concentration (IC50) greater than 500 µM.

For the next series, the system named is Leishmania braziliensis. The series is described as follows: Antileishmanial activity against extracellular promastigotes form of Leishmania braziliensis MCAN/BR/97/P142 after 24 hrs by neubauer chamber analysis. Format: functional, organism-based. To be noted: MCAN/BR/97/P142, 24 h.
For the compound `Nc1c(C2=NCCN2)cnn1-c1cccc(Cl)c1`, the IC50 was greater than 500 µM.

`Nc1c(C2=NCCN2)cnn1-c1ccc(Br)cc1` returned a 50% inhibitory concentration (IC50) of 272 µM.

`Clc1cc(Cl)cc(-n2cc(C3=NCCN3)cn2)c1` returned an IC50 of 459 µM.

`c1ccc(-n2cc(C3=NCCN3)cn2)cc1` gave a half-inhibitory concentration (IC50) greater than 500 µM.

Compound `Nc1c(C2=NCCN2)cnn1-c1cc(Cl)cc(Cl)c1` gave a 50% inhibitory concentration (IC50) of 437 µM.

In turn, `Clc1cccc(-n2cc(C3=NCCN3)cn2)c1` came in with an IC50 greater than 500 µM.

Compound `Nc1c(C2=NCCN2)cnn1-c1ccccc1` returned a half-inhibitory concentration (IC50) of 433 µM.

`N=C(N)c1ccc(OCCCCCOc2ccc(C(=N)N)cc2)cc1` [PENTAMIDINE] had a concentration for half-maximal inhibition (IC50) of 50 µM.

For `Nc1c(C2=NCCN2)cnn1-c1cccc(F)c1`, the IC50 was greater than 500 µM.

The next series deals with Leishmania infantum. The series is described as follows: Antileishmanial activity against extracellular promastigotes form of Leishmania infantum MCAN/BR/98R619 after 24 hrs by neubauer chamber analysis. It counts as functional, organism-based. To be noted: MCAN/BR/98R619, 24 h.
For `Clc1ccc(-n2cc(C3=NCCN3)cn2)cc1Cl`, the IC50 was greater than 500 µM.

`Nc1c(C2=NCCN2)cnn1-c1cccc(Cl)c1` came in with an IC50 greater than 500 µM.

In turn, `Nc1c(C2=NCCN2)cnn1-c1ccc(Br)cc1` gave an IC50 greater than 500 µM.

Turning to `Clc1cc(Cl)cc(-n2cc(C3=NCCN3)cn2)c1`, the half-maximal inhibitory concentration (IC50) is greater than 500 µM.

Turning to `c1ccc(-n2cc(C3=NCCN3)cn2)cc1`, the half-maximal inhibitory concentration (IC50) was greater than 500 µM.

Regarding `Nc1c(C2=NCCN2)cnn1-c1cc(Cl)cc(Cl)c1`, the half-inhibitory concentration (IC50) was greater than 500 µM.

In turn, `Brc1cccc(-n2cc(C3=NCCN3)cn2)c1` yielded a half-maximal inhibitory concentration (IC50) greater than 500 µM.

For the compound `Clc1cccc(-n2cc(C3=NCCN3)cn2)c1`, the IC50 was greater than 500 µM.

`Nc1c(C2=NCCN2)cnn1-c1ccccc1` gave an IC50 greater than 500 µM.

The compound `Brc1ccc(-n2cc(C3=NCCN3)cn2)cc1` registered an IC50 greater than 500 µM.

As to `N=C(N)c1ccc(OCCCCCOc2ccc(C(=N)N)cc2)cc1` [PENTAMIDINE], half-maximal inhibition (IC50) required 100 µM.

With `Fc1cccc(-n2cc(C3=NCCN3)cn2)c1`, the IC50 was greater than 500 µM.

For the compound `Nc1c(C2=NCCN2)cnn1-c1cccc(F)c1`, the IC50 is greater than 500 µM.

Test system in another series: not listed separately
The series is described as follows: Cytotoxicity against mouse peritoneal macrophages at IC50 for Leishmania amazonensis MHOM/ BR/77/LTB0016. Format: cell-based. To be noted: peritoneal macrophage cell.
`Clc1ccc(-n2cc(C3=NCCN3)cn2)cc1Cl` gave an Activity of 5.32%.

Turning to `Nc1c(C2=NCCN2)cnn1-c1cccc(Cl)c1`, the Activity turned out to be 15.2%.

Consider `Clc1cc(Cl)cc(-n2cc(C3=NCCN3)cn2)c1`, for which the Activity amounted to 3.97%.

Turning to `Nc1c(C2=NCCN2)cnn1-c1ccc(Cl)c(Cl)c1`, the Activity is given as 15.5%.

Turning to `c1ccc(-n2cc(C3=NCCN3)cn2)cc1`, the Activity was found to be 11.26%.

`Brc1cccc(-n2cc(C3=NCCN3)cn2)c1` yielded an Activity of 11.98%.

Consider `Clc1cccc(-n2cc(C3=NCCN3)cn2)c1`, for which the Activity is 6.46%.

As to `Brc1ccc(-n2cc(C3=NCCN3)cn2)cc1`, the Activity was 3.52%.

`N=C(N)c1ccc(OCCCCCOc2ccc(C(=N)N)cc2)cc1` [PENTAMIDINE] came in with an Activity of 31%.

The subject of the next series is Leishmania amazonensis. The series is described as follows: Antileishmanial activity against Leishmania amazonensis MHOM/ BR/77/LTB0016 infected in CBA mouse assessed as development of cutaneous lesions at 100 umol/kg, po qd for 30 days administered 4 weeks post infection measured up to week 21. It counts as functional, organism-based.
Details: not given
As to `Nc1c(C2=NCCN2)cnn1-c1cc(Cl)cc(Cl)c1`, the outcome was Active.

The next series has as its system Leishmania amazonensis. The series is described as follows: Antileishmanial activity against Leishmania amazonensis MHOM/ BR/77/LTB0016 infected in CBA mouse assessed as development of cutaneous lesions at 50 mg/kg, po qd for 30 days administered 4 weeks post infection measured up to week 21. It counts as functional, organism-based. Details: dose 50 mg/kg.
Details: not given
With `CC(=O)N1CCN(c2ccc(OCC3COC(Cn4ccnc4)(c4ccc(Cl)cc4Cl)O3)cc2)CC1` (centres undefined) [KETOCONAZOLE], the outcome was Active.

The test system of another series is Mus musculus. Nature of the series: Toxicity in CBA mouse infected with Leishmania amazonensis MHOM/ BR/77/LTB0016 assessed as weight loss at 29 to 100 umol/kg, po qd for 30 days administered 4 week post infection measured up to week 21. To be noted: in vivo. It counts as organism-based.
With `Nc1c(C2=NCCN2)cnn1-c1cc(Cl)cc(Cl)c1`, the Activity result is reported as “Non-toxic”.

The test system of a further series is Mus musculus. The series is described as follows: Toxicity in CBA mouse infected with Leishmania amazonensis MHOM/ BR/77/LTB0016 assessed as weight loss at 50 mg/kg, po qd for 30 days administered 4 week post infection measured up to week 21. It counts as organism-based. Also on record: dose 50 mg/kg, route oral. To be noted: in vivo.
On to `CC(=O)N1CCN(c2ccc(OCC3COC(Cn4ccnc4)(c4ccc(Cl)cc4Cl)O3)cc2)CC1` (centres undefined) [KETOCONAZOLE], for which the Activity result is “Non-toxic”.

Another series concerns Mus musculus. The series is described as follows: Toxicity in CBA mouse infected with Leishmania amazonensis MHOM/ BR/77/LTB0016 assessed as change in leukocytes count at 100 umol/kg, po qd for 30 days administered 4 week post infection measured up to week 21. It counts as organism-based. To be noted: in vivo.
For the compound `Nc1c(C2=NCCN2)cnn1-c1cc(Cl)cc(Cl)c1`, the Activity result is “Non-toxic”.

In another series the test system is Mus musculus. The series is described as follows: Toxicity in CBA mouse infected with Leishmania amazonensis MHOM/ BR/77/LTB0016 assessed as change in leukocytes count at 50 mg/kg, po qd for 30 days administered 4 week post infection measured up to week 21. Format: organism-based. Details: dose 50 mg/kg, route oral. To be noted: in vivo.
Regarding `CC(=O)N1CCN(c2ccc(OCC3COC(Cn4ccnc4)(c4ccc(Cl)cc4Cl)O3)cc2)CC1` (centres undefined) [KETOCONAZOLE], the Activity entry is listed as “Non-toxic”.

In the next series the test system is Mus musculus. The series is described as follows: Toxicity in CBA mouse infected with Leishmania amazonensis MHOM/ BR/77/LTB0016 assessed as change in monocytes count at 100 umol/kg, po qd for 30 days administered 4 week post infection measured up to week 21. Format: organism-based. To be noted: in vivo.
Consider `Nc1c(C2=NCCN2)cnn1-c1cc(Cl)cc(Cl)c1`, for which the Activity entry is on record as “Non-toxic”.

For a further series, the system named is Mus musculus. The series is described as follows: Toxicity in CBA mouse infected with Leishmania amazonensis MHOM/ BR/77/LTB0016 assessed as change in monocytes count at 50 mg/kg, po qd for 30 days administered 4 week post infection measured up to week 21. It counts as organism-based. Details: dose 50 mg/kg, route oral. To be noted: in vivo.
Take `CC(=O)N1CCN(c2ccc(OCC3COC(Cn4ccnc4)(c4ccc(Cl)cc4Cl)O3)cc2)CC1` (centres undefined) [KETOCONAZOLE]: the Activity entry is listed as “Non-toxic”.

The test system of a further series is Mus musculus. Nature of the series: Toxicity in CBA mouse infected with Leishmania amazonensis MHOM/ BR/77/LTB0016 assessed as change in neutrophils count at 100 umol/kg, po qd for 30 days administered 4 week post infection measured up to week 21. Format: organism-based. To be noted: in vivo.
For `Nc1c(C2=NCCN2)cnn1-c1cc(Cl)cc(Cl)c1`, the Activity entry is “Non-toxic”.

Another series has as its system Mus musculus. Nature of the series: Toxicity in CBA mouse infected with Leishmania amazonensis MHOM/ BR/77/LTB0016 assessed as change in neutrophils count at 50 mg/kg, po qd for 30 days administered 4 week post infection measured up to week 21. Details: dose 50 mg/kg, route oral. Format: organism-based. To be noted: in vivo.
With `CC(=O)N1CCN(c2ccc(OCC3COC(Cn4ccnc4)(c4ccc(Cl)cc4Cl)O3)cc2)CC1` (centres undefined) [KETOCONAZOLE], the Activity entry is “Non-toxic”.

The subject of the next series is Mus musculus. Nature of the series: Hepatotoxicity in CBA mouse infected with promastigotes form of Leishmania amazonensis MHOM/ BR/77/LTB0016 assessed as change in AST level at 100 umol/kg, po qd for 30 days administered 4 week post infection measured up to week 21. It counts as toxicity, organism-based. To be noted: in vivo.
`Nc1c(C2=NCCN2)cnn1-c1cc(Cl)cc(Cl)c1`: the Activity result was “Non-toxic”.

A further series has as its system Mus musculus. The series is described as follows: Hepatotoxicity in CBA mouse infected with promastigotes form of Leishmania amazonensis MHOM/ BR/77/LTB0016 assessed as change in ALT level at 100 umol/kg, po qd for 30 days administered 4 week post infection measured up to week 21. Format: toxicity, organism-based. To be noted: in vivo.
On to `Nc1c(C2=NCCN2)cnn1-c1cc(Cl)cc(Cl)c1`, for which the Activity result was “Non-toxic”.

In another series the test system is Mus musculus. The series is described as follows: Renal toxicity in CBA mouse infected with promastigotes form of Leishmania amazonensis MHOM/ BR/77/LTB0016 assessed as change in creatinine level at 100 umol/kg, po qd for 30 days administered 4 week post infection measured up to week 21. Format: organism-based. To be noted: in vivo.
Turning to `Nc1c(C2=NCCN2)cnn1-c1cc(Cl)cc(Cl)c1`, the Activity result is recorded as “Non-toxic”.
